A short description of data set [1]: Cytotoxicity against human HepG2(2.2.15) cells after 8 days by MTT assay. The format is cell-based.
Data set [2] deals with Hepatitis B virus. Briefly: Antiviral activity against Hepatitis B virus infected in human HepG2(2.2.15) cells assessed as inhibition of viral DNA replication after 4 days by RT-PCR analysis. Type of data set: functional, organism-based. Particulars: HepG2 2.2.15, 96 h.
Data set [3] is described as follows: Selectivity index, ratio of CC50 for human HepG2.2.15 cells to IC50 for Hepatitis B virus. The format is functional.

In data set [1], `CCCN(CCC)CCc1c[nH]c2ccccc12` came in with a cytotoxic concentration (CC50) at 192 h of more than 100 µM. In addition, the concentration for half-maximal inhibition (IC50) in data set [2] is more than 100 µM.
In turn, `CC(C)CN(CCc1c[nH]c2ccccc12)CC(C)C` gave a cytotoxic concentration (CC50) at 192 h in data set [1] of more than 100 µM. The “Ratio CC50/IC50” value in data set [3] was more than 8.2. Moreover, the 50% inhibitory concentration (IC50) in data set [2] is 12.2 µM.
`CC(C)CCN(CCc1c[nH]c2ccccc12)CCC(C)C` yielded a CC50 at 192 h in data set [1] of 40.6 µM. The “Ratio CC50/IC50” value in data set [3] is 102. The IC50 in data set [2] is 0.4 µM.
On to `c1ccc2c(CCN(CC3CC3)CC3CC3)c[nH]c2c1`, for which the CC50 at 192 h in data set [1] was more than 100 µM. Besides, in data set [3], the “Ratio CC50/IC50” value is on record as more than 16.7. The half-maximal inhibitory concentration (IC50) in data set [2] came to 6 µM.
In turn, `c1ccc2c(CCN(CC3CCCCC3)CC3CCCCC3)c[nH]c2c1` registered a CC50 at 192 h in data set [1] of more than 33.3 µM. Besides, the half-inhibitory concentration (IC50) in data set [2] was more than 100 µM.
For `c1ccc(CN(CCc2c[nH]c3ccccc23)Cc2ccccc2)cc1`, the CC50 at 192 h in data set [1] worked out at 12.4 µM. Further, the “Ratio CC50/IC50” value in data set [3] is recorded as 0.95. Besides, in data set [2], the IC50 is 13 µM.
For `c1ccc(CN(CCc2c[nH]c3ccccc23)Cc2ccccn2)nc1`, in data set [1], half-maximal cytotoxicity (CC50 at 192 h) was put at 5.8 µM. Besides, the IC50 in data set [2] is more than 25 µM.
`c1coc(CN(CCc2c[nH]c3ccccc23)Cc2ccco2)c1`: the cytotoxic concentration (CC50) at 192 h in data set [1] stood at 27.3 µM. For the same compound, the “Ratio CC50/IC50” value in data set [3] is recorded as 7.8. Also, the IC50 in data set [2] amounted to 3.5 µM.
In data set [1], `c1csc(CN(CCc2c[nH]c3ccccc23)Cc2cccs2)c1` displayed a 50% cytotoxic concentration (CC50) at 192 h of more than 33.3 µM. Further, the “Ratio CC50/IC50” value in data set [3] was more than 8.5. Moreover, the IC50 in data set [2] is 3.9 µM.
As to `COc1cc(OC)c(OC)cc1CN(CCc1c[nH]c2ccccc12)Cc1cc(OC)c(OC)cc1OC`, half-maximal cytotoxicity in data set [1] (CC50 at 192 h) was put at 21 µM. Further, in data set [3], the “Ratio CC50/IC50” value was found to be 17.2. Besides, the IC50 in data set [2] amounted to 1.2 µM.
Compound `O=[N+]([O-])c1cccc(CN(CCc2c[nH]c3ccccc23)Cc2cccc([N+](=O)[O-])c2)c1` yielded a CC50 at 192 h in data set [1] of more than 100 µM. In data set [2], the half-inhibitory concentration (IC50) is more than 100 µM.
`C[N+](C)([O-])CCc1c[nH]c2ccccc12`: the 50% cytotoxic concentration (CC50) at 192 h in data set [1] is more than 100 µM. Further, the “Ratio CC50/IC50” value in data set [3] is more than 5.7. Also, the half-inhibitory concentration (IC50) in data set [2] was determined as 17.6 µM.
`CC[N+]([O-])(CC)CCc1c[nH]c2ccccc12`: the cytotoxic concentration (CC50) at 192 h in data set [1] is more than 100 µM. Besides, in data set [2], the IC50 was more than 100 µM.
In data set [1], `CCC[N+]([O-])(CCC)CCc1c[nH]c2ccccc12` registered a CC50 at 192 h of more than 100 µM. Besides, in data set [2], the half-maximal inhibitory concentration (IC50) is more than 100 µM.
The compound `CC(C)C[N+]([O-])(CCc1c[nH]c2ccccc12)CC(C)C` displayed a cytotoxic concentration (CC50) at 192 h in data set [1] of more than 100 µM. Besides, the IC50 in data set [2] was more than 100 µM.
With `CC(C)CC[N+]([O-])(CCc1c[nH]c2ccccc12)CCC(C)C`, it took 77.6 µM to reach half-maximal cytotoxicity in data set [1] (CC50 at 192 h).
In data set [1], `[O-][N+](CCc1c[nH]c2ccccc12)(CC1CC1)CC1CC1` had a CC50 at 192 h of more than 100 µM. For the same compound, the 50% inhibitory concentration (IC50) in data set [2] was more than 100 µM.
Turning to `[O-][N+](CCc1c[nH]c2ccccc12)(CC1CCCCC1)CC1CCCCC1`, in data set [1], half-maximal cytotoxicity (CC50 at 192 h) was put at 23.1 µM. The concentration for half-maximal inhibition (IC50) in data set [2] was more than 100 µM.
With `[O-][N+](CCc1c[nH]c2ccccc12)(Cc1ccccc1)Cc1ccccc1`, the CC50 at 192 h in data set [1] was more than 100 µM. Also, the 50% inhibitory concentration (IC50) in data set [2] was more than 100 µM.
As for `[O-][N+](CCc1c[nH]c2ccccc12)(Cc1ccccn1)Cc1ccccn1`, the 50% cytotoxic concentration (CC50) at 192 h in data set [1] was found to be 56.5 µM. In addition, the IC50 in data set [2] was more than 100 µM.
Turning to `[O-][N+](CCc1c[nH]c2ccccc12)(Cc1ccco1)Cc1ccco1`, the CC50 at 192 h in data set [1] was more than 100 µM. The “Ratio CC50/IC50” value in data set [3] is reported as more than 13.3. The IC50 in data set [2] was 7.5 µM.
As for `[O-][N+](CCc1c[nH]c2ccccc12)(Cc1cccs1)Cc1cccs1`, the CC50 at 192 h in data set [1] is more than 100 µM. In data set [3], the “Ratio CC50/IC50” value is given as more than 10.6. In data set [2], the 50% inhibitory concentration (IC50) was 9.4 µM.
Take `C[N+](C)([O-])CCc1c[nH]c2ccc(O)cc12`: in data set [1], the CC50 at 192 h was more than 25 µM. Moreover, the “Ratio CC50/IC50” value in data set [3] is on record as more than 25. The 50% inhibitory concentration (IC50) in data set [2] is less than 1 µM.
In turn, `C[N+](C)([O-])CCc1c[nH]c2ccc(Br)cc12` displayed a CC50 at 192 h in data set [1] of more than 25 µM. Moreover, the “Ratio CC50/IC50” value in data set [3] is more than 4.6. In data set [2], the IC50 amounted to 5.4 µM.
Compound `C[N+](C)([O-])CCc1c[nH]c2ccc(Cl)cc12` gave a CC50 at 192 h in data set [1] of more than 25 µM. For the same compound, in data set [3], the “Ratio CC50/IC50” value is listed as more than 3. Besides, the IC50 in data set [2] worked out at 8.4 µM.
In data set [1], `CC(C)CCNCCc1c[nH]c2ccccc12` displayed a CC50 at 192 h of more than 25 µM. Also, the concentration for half-maximal inhibition (IC50) in data set [2] was more than 25 µM.
For `CC(C)CCN(C)CCc1c[nH]c2ccccc12`, the CC50 at 192 h in data set [1] was more than 25 µM. In addition, in data set [2], the IC50 is more than 25 µM.
The compound `CC(C)CCN(CCc1c[nH]c2ccccc12)Cc1ccco1` displayed a 50% cytotoxic concentration (CC50) at 192 h in data set [1] of more than 25 µM. Moreover, the “Ratio CC50/IC50” value in data set [3] is listed as more than 4.7. Besides, in data set [2], the IC50 was found to be 5.3 µM.
In data set [1], `CCN(CCc1c[nH]c2ccccc12)CCC(C)C` came in with a CC50 at 192 h of more than 25 µM. Also, the concentration for half-maximal inhibition (IC50) in data set [2] was more than 25 µM.
In turn, `CCCN(CCc1c[nH]c2ccccc12)CCC(C)C` returned a CC50 at 192 h in data set [1] of more than 25 µM. The “Ratio CC50/IC50” value in data set [3] is recorded as more than 1.25. Besides, the IC50 in data set [2] came out at 20 µM.
With `CC(C)CCN(CCc1c[nH]c2ccccc12)Cc1cccs1`, in data set [1], the 50% cytotoxic concentration (CC50) at 192 h is more than 25 µM. In addition, the “Ratio CC50/IC50” value in data set [3] is on record as more than 2.5. For the same compound, in data set [2], the 50% inhibitory concentration (IC50) worked out at 10.1 µM.
In turn, `CC(C)CCN(CCc1c[nH]c2ccccc12)CC(C)C` registered a CC50 at 192 h in data set [1] of more than 25 µM. Further, in data set [3], the “Ratio CC50/IC50” value is more than 23. In data set [2], the IC50 was determined as 1.1 µM.
The compound `CC(C)CCN(CCc1cn(S(=O)(=O)c2ccccc2)c2ccccc12)CCC(C)C` yielded a CC50 at 192 h in data set [1] of 15 µM. For the same compound, the IC50 in data set [2] is more than 25 µM.
The compound `CCN(CC)CCc1c[nH]c2ccccc12` [DIETHYLTRYPTAMINE] registered a cytotoxic concentration (CC50) at 192 h in data set [1] of more than 100 µM. In data set [2], the IC50 was more than 100 µM.
Turning to `Nc1ccn([C@@H]2CS[C@H](CO)O2)c(=O)n1` [LAMIVUDINE], the CC50 at 192 h in data set [1] worked out at 1170 µM. In addition, the “Ratio CC50/IC50” value in data set [3] turned out to be 3557. Besides, the IC50 in data set [2] came to 0.33 µM.
Compound `CN(C)CCc1c[nH]c2ccccc12` [N,N-DIMETHYLTRYPTAMINE] had a CC50 at 192 h in data set [1] of more than 100 µM. Also, the 50% inhibitory concentration (IC50) in data set [2] was more than 100 µM.

What is called CC50 is the concentration at which the toxic effect on the cells reaches its halfway point. Read a high CC50 as lower toxicity to the cells. Broadly, the IC50 is the concentration that inhibits the measured activity by half.

Source of the values: ChEMBL document CHEMBL1777761, “Tryptamine derivatives as novel non-nucleosidic inhibitors against hepatitis B virus” (Bioorg Med Chem, 2011).
